# Results from ChEMBL document CHEMBL3046822, “Synthesis, antiplatelet aggregation activity, and molecular modeling study of novel substituted-piperazine analogues” (2011).
# Calls of active or inactive are those of the source. The calls are words filed in the database; no cut-off is given here.
# Legend:
# Platelet [1] = assay: Antiaggregating activity in Homo sapiens (human) platelet rich plasma assessed as inhibition of arachidonic acid-induced platelet aggregation at 0.5 uM incubated for 4 min prior to arachidonic acid-induction measured for 5.5 min by turbidometric analysis; type: functional
# Platelet [2] = assay: Antiaggregating activity in Homo sapiens (human) platelet rich plasma assessed as inhibition of arachidonic acid-induced platelet aggregation at 1 uM incubated for 4 min prior to arachidonic acid-induction measured for 5.5 min by turbidometric analysis; type: functional, cell-free
# Platelet [3] = assay: Antiaggregating activity in Homo sapiens (human) platelet rich plasma assessed as inhibition of adrenaline-induced platelet aggregation at 0.4 uM incubated for 4 min prior to adrenaline-induction measured for 5.5 min by turbidometric analysis; type: functional, cell-free
# Platelet [4] = assay: Antiaggregating activity in Homo sapiens (human) platelet rich plasma assessed as inhibition of adrenaline-induced platelet aggregation at 0.5 uM incubated for 4 min prior to adrenaline-induction measured for 5.5 min by turbidometric analysis; type: functional, cell-free
# Platelet [5] = assay: Antiaggregating activity in Homo sapiens (human) platelet rich plasma assessed as inhibition of adrenaline-induced platelet aggregation at 1 uM incubated for 4 min prior to adrenaline-induction measured for 5.5 min by turbidometric analysis; type: functional, cell-free
# [6] = Antiaggregating activity in Homo sapiens (human) platelet rich plasma assessed as ristocetin-induced platelet aggregation at 0.4 uM incubated for 4 min prior to ristocetin-induction measured for 5.5 min by turbidometric analysis (reference value: 65 to 99%); type: functional
# [7] = Antiaggregating activity in Homo sapiens (human) platelet rich plasma assessed as ristocetin-induced platelet aggregation at 0.5 uM incubated for 4 min prior to ristocetin-induction measured for 5.5 min by turbidometric analysis (reference value: 65 to 99%); type: functional
# [8] = Antiaggregating activity in human platelet rich plasma assessed as disaggregation of ristocetin-induced platelet aggregation at 1 uM incubated for 4 min prior to ristocetin-induction measured for 5.5 min by turbidometric analysis relative to control; type: functional
# Platelet [9] = assay: Antiaggregating activity in Homo sapiens (human) platelet rich plasma assessed as inhibition of ADP-induced platelet aggregation at 0.4 uM incubated for 4 min prior to ADP-induction measured for 5.5 min by turbidometric analysis; type: functional, cell-free
# Platelet [10] = assay: Antiaggregating activity in Homo sapiens (human) platelet rich plasma assessed as inhibition of ADP-induced platelet aggregation at 0.5 uM incubated for 4 min prior to ADP-induction measured for 5.5 min by turbidometric analysis; type: functional, cell-free
# Platelet [11] = assay: Antiaggregating activity in Homo sapiens (human) platelet rich plasma assessed as inhibition of ADP-induced platelet aggregation at 1 uM incubated for 4 min prior to ADP-induction measured for 5.5 min by turbidometric analysis; type: functional, cell-free
# Platelet [12] = assay: Antiaggregating activity in Homo sapiens (human) platelet rich plasma assessed as inhibition of collagen-induced platelet aggregation at 0.4 uM incubated for 4 min prior to collagen-induction measured for 5.5 min by turbidometric analysis; type: functional, cell-free
# Platelet [13] = assay: Antiaggregating activity in Homo sapiens (human) platelet rich plasma assessed as inhibition of collagen-induced platelet aggregation at 0.5 uM incubated for 4 min prior to collagen-induction measured for 5.5 min by turbidometric analysis; type: functional, cell-free
# Platelet [14] = assay: Antiaggregating activity in Homo sapiens (human) platelet rich plasma assessed as inhibition of collagen-induced platelet aggregation at 1 uM incubated for 4 min prior to collagen-induction measured for 5.5 min by turbidometric analysis; type: functional, cell-free
# Platelet [15] = assay: Antiaggregating activity in Homo sapiens (human) platelet rich plasma assessed as inhibition of arachidonic acid-induced platelet aggregation at 0.4 uM incubated for 4 min prior to arachidonic acid-induction measured for 5.5 min by turbidometric analysis; type: functional, cell-free
smiles,measurement,setting,value
Cl.O=C(c1cccnc1)N1CCN(c2ccccc2Cl)CC1,inhibition,Platelet [1],Active
same,inhibition,Platelet [2],Active
same,inhibition,Platelet [3],Active
same,inhibition,Platelet [4],Active
same,inhibition,Platelet [5],Active
same,Activity,[6],77%
same,Activity,[7],71%
same,Activity,[8],23%
same,inhibition,Platelet [9],Active
same,inhibition,Platelet [10],Active
same,inhibition,Platelet [11],Active
same,inhibition,Platelet [12],Active
same,inhibition,Platelet [13],Active
same,inhibition,Platelet [14],Active
same,inhibition,Platelet [15],Active
